Data set [1] deals with Plasmodium falciparum. The data set can be described thus: Antimalarial activity against multidrug resistant Plasmodium falciparum K1 incubated for 72 hrs by malaria SYBR green I nucleic acid staining dye based fluorescence assay. The conditions noted are these: K1, 72 h. It counts as functional, organism-based.
Data set [2] relates to Plasmodium falciparum. As to the kind of experiment: Antimalarial activity against chloroquine sensitive Plasmodium falciparum 3D7 incubated for 72 hrs by malaria SYBR green I nucleic acid staining dye based fluorescence assay. It counts as functional, organism-based. The conditions noted are these: 3D7, 72 h.
The test system of data set [3] is Plasmodium falciparum. As to the kind of experiment: Antimalarial activity against multidrug resistant Plasmodium falciparum Dd2 incubated for 72 hrs by malaria SYBR green I nucleic acid staining dye based fluorescence assay. It counts as functional, organism-based. The conditions noted are these: Dd2, 72 h.
Data set [4] deals with Plasmodium yoelii. As to the kind of experiment: In vivo antimalarial activity against chloroquine resistant Plasmodium yoelii N-67 infected in Swiss albino mouse assessed as suppression of parasitemia at 25 mg/kg measured upto 28 days relative to control. It counts as functional. Conditions: time <= 28 day.
For data set [5], the system named is Plasmodium falciparum. The data set can be described thus: Antimalarial activity against chloroquine resistant Plasmodium falciparum K1 incubated for 72 hrs by malaria SYBR green I nucleic acid staining dye based fluorescence assay. It counts as functional, organism-based. The conditions noted are these: K1, 72 h.
The test system of data set [6] is Plasmodium falciparum. As to the kind of experiment: Antimalarial activity against chloroquine sensitive Plasmodium falciparum T96 infected in human erythrocytes by microplate fluorometric detection method. The data set is classed as functional, organism-based.
Data set [7] relates to Plasmodium falciparum. As to the kind of experiment: Antimalarial activity against chloroquine resistant Plasmodium falciparum K1 infected in human erythrocytes by microplate fluorometric detection method. The data set is classed as functional, organism-based.
In data set [8] the test system is Plasmodium falciparum. The data set can be described thus: Antimalarial activity against chloroquine sensitive Plasmodium falciparum 3D7 incubated for 72 hrs by SYBR green I assay. The data set is classed as functional, organism-based. The conditions noted are these: 3D7, 72 h.
The test system of data set [9] is Plasmodium yoelii. As to the kind of experiment: In vivo antimalarial activity against chloroquine resistant Plasmodium yoelii N-67 infected in Swiss albino mouse assessed as suppression of parasitemia at 10 mg/kg relative to control. It counts as functional.
Data set [10] relates to Plasmodium falciparum. As to the kind of experiment: Antimalarial activity against chloroquine resistant Plasmodium falciparum Dd2 incubated for 72 hrs by malaria SYBR green I based assay. The conditions noted are these: Dd2, 72 h. It counts as functional, organism-based.
In the next data set the test system is A549. The data set can be described thus: Cytotoxicity against human A549 cells. It counts as functional.
Data set [11] concerns Plasmodium falciparum. The data set can be described thus: Antimalarial activity against Plasmodium falciparum Dd2. The data set is classed as functional, organism-based.
Data set [12] is described as follows: Cytotoxicity against human HEK293 cells. The data set is classed as toxicity, cell-based.
The next data set has as its system HepG2. As to the kind of experiment: Cytotoxicity against human HepG2 cells. The data set is classed as functional, cell-based.
A further data set concerns Plasmodium berghei. The data set can be described thus: In vivo antimalarial activity against Plasmodium berghei infected in mouse administered po for 4 days by Peters 4 day test. The data set is classed as functional. The conditions noted are these: 96 h.
Data set [13] can be described thus: Cmax in mouse blood at 16 mg/kg, po measured upto 28 days by LC-MS analysis. The arrangement: time < 28 day, dose 16 mg/kg, route po. It counts as ADME, organism-based.
For data set [14], the system named is Plasmodium falciparum. The data set can be described thus: Antimalarial activity against multidrug resistant Plasmodium falciparum MRA1240 after 48 hrs in presence of [3H] hypoxanthine. The data set is classed as functional, organism-based.
The test system of data set [15] is Plasmodium falciparum. The data set can be described thus: Antimalarial activity against multidrug resistant Plasmodium falciparum MRA1239 after 48 hrs in presence of [3H] hypoxanthine. It counts as functional, organism-based.
In data set [16] the test system is Plasmodium falciparum. The data set can be described thus: Antimalarial activity against multidrug resistant Plasmodium falciparum W2 after 48 hrs in presence of [3H] hypoxanthine. The data set is classed as functional, organism-based.
Data set [17] relates to Plasmodium falciparum. The data set can be described thus: Antimalarial activity against multidrug resistant Plasmodium falciparum TM90-C2B after 48 hrs in presence of [3H] hypoxanthine. The data set is classed as functional, organism-based.
A short description of data set [18]: Elimination half life in mouse blood at 16 mg/kg, po measured upto 28 days by LC-MS analysis. The conditions noted are these: time < 28 day, read-out: LambdaZ (converted). The data set is classed as ADME, organism-based.

Structures are written as SMILES.

In general, EC50 refers to the concentration at which the effect is half-maximal. Turning to `C[C@@H]1CCC2[C@@H](C)[C@H](OC(=O)CCC(=O)NCCNc3ccnc4cc(Cl)ccc34)O[C@@H]3O[C@]4(C)CC[C@@H]1[C@@]23OO4` (some centres not stated), the EC50 was 0.78 nM in the data set on Plasmodium falciparum [1], 2.7 nM with Plasmodium falciparum [2] and 1 nM with Plasmodium falciparum [3].
The IC50 is the concentration at which inhibition is half-maximal. Consider `CC(C)C[C@@H](CN1CCN(C)CC1)Nc1ccnc2cc(Cl)ccc12`, for which the Activity in the data set on Plasmodium yoelii [4] is 100%. Also, the figures for the IC50 in the data set with Plasmodium falciparum [5] and with Plasmodium falciparum [2] were 13.6 nM and 8.8 nM, respectively.
Regarding `COC(=O)CC[C@@H](C)[C@H]1CCC2C3CC[C@@H]4CC5(CC[C@]4(C)C3C[C@H](OC(C)=O)[C@@]21C)OOC(C)(C)OO5` (some centres not stated), the results for the EC50 in the data set with Plasmodium falciparum [6] and with Plasmodium falciparum [7] were 131 nM and 3 nM, respectively.
For the molecule `C=C(c1ccc(C)cc1C)C1COC2(CCC(Nc3ccccc3)CC2)OO1` (configuration not stated), inhibition in the data set with Plasmodium falciparum [8] was half-maximal at 19.6 nM (IC50). This lies in the double-digit nanomolar range.
`CC(C)C[C@@H](CN1CCN(C)CC1)Nc1ccnc2cc(Cl)ccc12.Cl`: in the data set on Plasmodium yoelii [9], the Activity was found to be 100%.
`CN(C)CCNc1cc(/C=C/c2ccncc2)nc2ccccc12` registered an IC50 in the data set on Plasmodium falciparum [10] of 33 nM.
As usually defined, the CC50 is the concentration at which the toxic effect on the cells reaches its halfway point. High values mean lower toxicity to the cells, low ones greater toxicity to the cells. As for `COc1ccc(NC(=O)N2CCCCN3C[C@H](c4ccc(C#Cc5ccccc5)cc4)[C@@H]3C2)cc1`, the CC50 with A549 is 38000 nM; in data set [12], more than 50000 nM; with HepG2 it was more than 50000 nM. Moreover, the EC50 in the data set with Plasmodium falciparum [11] was determined as 15 nM.
As a reminder, the ED50 is the midpoint of the dose-response relation. Lower therefore signals greater potency. For orientation: Cmax means the peak of the concentration-time curve. On to `CN(C(=S)NN=C(c1ccccn1)c1ccccn1)c1ccccc1`, for which, in the data set with Plasmodium berghei, the median effective dose (ED50) worked out at 1.2 mg/kg/day. The peak level in data set [13] (Cmax) was 1880 ng/mL. The EC50 amounted to 9.1 nM in the data set with Plasmodium falciparum [14], 6.9 nM with Plasmodium falciparum [15], 6.2 nM in the data set on Plasmodium falciparum [16] and 13 nM in the data set on Plasmodium falciparum [17]. The half-life in data set [18] is 48.7 h.

The values above are taken from ChEMBL document CHEMBL5104092, “An insight into the recent development of the clinical candidates for the treatment of malaria and their target proteins” (Eur J Med Chem, 2021).
